Experimental data as given in US7122335B1, “Compounds and methods to enhance rAAV transduction” (priority 1999, dated 2006).
Peptide text beside a SMILES is read from it. * marks the point of attachment. Cbz = O=C(OCc1ccccc1)*

Columns and labels:
[1] = tested on: primary human fibroblasts; type: cell-based; conditions: confluent fibroblasts, AV.GFP3ori MOI 1000, 96 hours post-infection; brefeldin A 10 μg/ml, vinblastine 22 μM, cytochalasin B 1 μM, NH4Cl 2 mM, chloroquine 20 μm, LLnL 400 μM, Z-LLL 4 μM
Experimental: FIG. 6. Primary confluent fibroblasts were infected with AV.GFP3ori virus at an MOI=1000 particles/cell following treatment with brefeldin A (10 μg/ml), vinblastine (22 μM), cytochalasin B (1 μM), NH4Cl (2 mM), chloroquine (20 μm), LLnL (400 μM), and Z-LLL (4 μM), final concentration indicated in brackets. Cells were harvested at 96 hours post-infection and the transduction efficiency was compared to untreated rAAV infected cells by FACS analysis for GFP expression. To control for non-specific effects caused by toxicity of the compounds, the percentage of live cells was also assessed by the absence of propidium iodide incorporation.
80% confluent human primary fibroblasts were infected with AV.GFP3ori at an moi of 1000 DNA particles/cell. FIG. 16A depicts GFP transgene expression in the absence (left photographs) and presence of 40 μM LLnL (right photographs) at 96 hours post-infection. […] Top and bottom panels represent bright field and FITC-channel fluorescent photomicrographs, respectively. The mean (+/−SEM, N=3) percentage of cells transduced with rAAV, as measured by FACS sorting of GFP expressing cells, is presented in the bar graph of FIG. 16B. […] In this study, rAAV from infected cells was first immunoprecipitated with anti-VP1,2,3 (AAV-2 capsid) monoclonal antibody followed by Western blot detection of ubiquitin side chains using an anti-ubiquitin monoclonal antibody. […] Epithelia were infected with AV.GFP3ori (10,000 particles/cell) from the basolateral surface following treatment with ubiquitin ligase inhibitor dipeptides (0.2 mM H-Leu-Ala-OH and 0.2 mM H-His-Ala-OH).
Initial studies were performed in confluent primary human fibroblasts since dose titrations and toxicity could be quickly assessed. Selected compounds were used to treat fibroblast monolayers prior to rAAV infection. rAAV transduction was assessed at 96 hours post-infection by FACS analysis, and the percentage of dead cells was simultaneously assessed by incorporation of propidium iodide.
These tripeptides are structurally related to chloroquine but have different lipid solubility and specificity for cysteine proteases (Seglen, 1983). These molecules decrease endosomal degradation of molecules by a mechanism different than altering pH.
Transduction of polarized airway epithelial cells and primary human fibroblasts. rAAV infection of fully differentiated bronchial cells was performed as described in Duan et al. (1998). For infections from the apical surface of the airway cells, 5 μl rAAV was mixed with 50 μl of culture media and applied directly onto the apical compartment of Millicell inserts (MOI=10,000 particles/cell). During apical infection, the basolateral side of the Millicell was continuously bathed in culture media. Gene transfer to the basal side was performed by inverting Millicell inserts and applying viral vector to the bottom of the supporting filter membrane in a 50 μl volume for 2 hours. Subsequently, Millicell inserts were returned to the upright position, in the continued presence of the original viral inoculum plus an additional 450 μl of media. For both apical and basolateral infections, rAAV containing media was removed after 24 hours and replaced with either fresh culture media (for the basal side) or exposed to air (for the apical side). To test the effect of different agents on the efficiency of AAV transduction in polarized airway cells, 1 μl of each solution was mixed with AAV prior to infection of airway epithelia. Agents were usually presented during the 24 hours AAV infection period unless indicated otherwise.

[2] = Toxicity of proteasome inhibitors in mice, intra-tracheal and systemic (IV) delivery; type: in vivo; conditions: 10, 100 and 1000 fold higher doses than used in polarized airway cells
Experimental: Long-term enhancement of rAAV transduction by proteasome inhibitor in vivo. To evaluate the potential utility of proteasome inhibitors for in vivo gene therapy, both the toxicity and efficacy of these agents for in vivo rAAV mediated gene transfer in the mouse lung was tested. To assess the toxicity of these proteasome inhibitors in mice, 10, 100, and 1000 fold higher effective doses of LLnL or Z-LLL were administered than used to induce gene transfer in polarized airway cells, using both intra-tracheal and systemic (IV) delivery. No toxicity was indicated by histologic evaluation of the lung and liver (data not shown) or was evidenced by the death of animals. To investigate whether these proteasome inhibitors could improve rAAV transduction in vivo, AV.LacZ (5×10^10 particles) was delivered either alone or in the presence of 400 μM Z-LLL by intranasal administration. Mouse lungs were harvested at 3, 10 and 150 days post-infection to evaluate short and long term effects. […] Targeted transgene expression was predominantly confined to the conducting airways, rather than in the parenchyma. Alveolar cells were rarely transduced. […] The range of transgene expression in distal and proximal airways was 0 to 4% and 5 to 18%, respectively.

Row | Molecule | rAAV transduction (GFP expression) compared to untreated rAAV infected cells [1] | toxicity (histology of lung and liver, death of animals) [2]
1 | CC(C)C[C@@H](C=O)NC(=O)[C@H](CC(C)C)NC(=O)[C@H](CC(C)C)NC(=O)OCc1ccccc1 [Z-LLL, N-carbobenzoxyl-L-leucinyl-L-leucinyl-L-leucinal] (Cbz-Leu-Leu-Leu-aldehyde) | significantly increased rAAV transduction | No toxicity
2 | N-acetyl-L-leucinyl-L-leucinal-L-norleucinal [LLnL] | significantly increased rAAV transduction | No toxicity
